Source: patent US5824771A, “Cyclic CRF agonists” (The Salk Institute for Biological Studies, priority 1997, dated 1998)
Bridge positions count the residues as written; N and C are the ends. Square brackets hold non-standard residues; d marks the D form. Ends that are not written are not given here. Peptide text beside a SMILES is read from it. Nle = CCCC[C@H](N)C(=O)O

How the values were obtained:
[1] = system: rat anterior pituitary cells; test: In vitro stimulation of ACTH and β-endorphin secretion by cultured rat pituitary cells, potency compared with oCRF (Standard) or r/hCRF; assay type: cell-based; conditions: for stimulation of secretion of ACTH and β-END-LI (testing by the general procedure), in words: general procedure of Example 1
Method: The cyclic CRF agonists are examined for their effects on the secretion of ACTH and β-endorphin in vitro and also in vivo. […] In vivo testing is carried out using the general procedure set forth in C. Rivier et al., Science, 218, 377 (1982).

[2] = Lowering of blood pressure on peripheral or iv administration; assay type: in vivo; conditions: peripheral administration

Compound | stimulation of secretion of ACTH and β-END-LI (testing by the general procedure), in words [1] | lowering of blood pressure when administered peripherally, in words [2] | in vitro biopotency, comparison in words ([1]; compared with the Standard or with a named analog) | in vitro potency to stimulate secretion of ACTH relative to the Standard ([1]; relative to the laboratory Standard (synthetic oCRF), cultured rat pituitary cells, limits in parentheses)
CCCC[C@H](NC(=O)[C@H](CCCCN)NC(=O)[C@H](C)NC(=O)[C@H](CCCNC(=N)N)NC(=O)[C@H](Cc1c[nH]cn1)NC(=O)[C@@H](NC(=O)[C@H](CCCC)NC(=O)[C@H](CC(N)=O)NC(=O)[C@H](CCCNC(=N)N)NC(=O)[C@H](CC(C)C)NC(=O)[C@H](CCCC)NC(=O)[C@H](Cc1c[nH]cn1)NC(=O)[C@@H](Cc1ccccc1)NC(=O)[C@@H](NC(=O)[C@H](CC(C)C)NC(=O)[C@H](CC(=O)O)NC(=O)[C@@H](NC(=O)[C@H](CO)NC(C)=O)[C@@H](C)CC)[C@@H](C)O)[C@@H](C)CC)C(=O)N[C@@H](CCC(=O)O)C(=O)NCC(=O)N[C@@H](CCC(=O)O)C(=O)N[C@@H](CCCNC(=N)N)C(=O)N[C@@H](CCC(=O)O)C(=O)N[C@H]1CCC(=O)NCCCC[C@@H](C(=O)N[C@@H](CC(N)=O)C(=O)N[C@@H](CCCNC(=N)N)C(=O)N[C@@H](CC(N)=O)C(=O)N[C@@H](CC(C)C)C(=O)N[C@@H](CC(C)C)C(=O)N[C@@H](CC(=O)O)C(=O)N[C@@H](CCC(=O)O)C(=O)N[C@H](C(N)=O)C(C)C)NC(=O)[C@@H](CCC(N)=O)NC(=O)[C@H](C)NC1=O [Example 16 H, (cyclo 30-33)[Ac-Ser^7, D-Phe^12, Nle^14,18,24, Glu^30, D-Gln^32, Lys^33]-flounder urotensin(7-41)] (Ac-SIDLT[dF]H[Nle]LRN[Nle]IHRAK[Nle]EGEREEA[dQ]KNRNLLDEV-NH2; lactam 24-27) | stimulate the secretion of ACTH and β-END-LI | very significant lowering of blood pressure | – | –
CCCC[C@H](NC(=O)[C@H](CCCCN)NC(=O)[C@H](C)NC(=O)[C@H](CCCNC(=N)N)NC(=O)[C@H](Cc1c[nH]cn1)NC(=O)[C@@H](NC(=O)[C@H](CCCC)NC(=O)[C@H](CC(N)=O)NC(=O)[C@H](CCCNC(=N)N)NC(=O)[C@H](CC(C)C)NC(=O)[C@H](CCCC)NC(=O)[C@H](Cc1c[nH]cn1)NC(=O)[C@@H](Cc1ccccc1)NC(=O)[C@@H](NC(=O)[C@H](CC(C)C)NC(=O)[C@H](CC(=O)O)NC(=O)[C@@H](NC(=O)[C@H](CO)NC(C)=O)[C@@H](C)CC)[C@@H](C)O)[C@@H](C)CC)C(=O)N[C@@H](CCC(=O)O)C(=O)NCC(=O)N[C@@H](CCC(=O)O)C(=O)N[C@@H](CCCNC(=N)N)C(=O)N[C@@H](CCC(=O)O)C(=O)N[C@H]1CCC(=O)NCCCC[C@@H](C(=O)N[C@@H](CC(N)=O)C(=O)N[C@@H](CCCNC(=N)N)C(=O)N[C@@H](CC(N)=O)C(=O)N[C@@H](CC(C)C)C(=O)N[C@@H](CC(C)C)C(=O)N[C@@H](CC(=O)O)C(=O)N[C@@H](CCC(=O)O)C(=O)N[C@H](C(N)=O)C(C)C)NC(=O)[C@@H](Cc2c[nH]cn2)NC(=O)[C@H](C)NC1=O [Example 16 E D-His^32 analog] (Ac-SIDLT[dF]H[Nle]LRN[Nle]IHRAK[Nle]EGEREEA[dH]KNRNLLDEV-NH2; lactam 24-27) | stimulate the secretion of ACTH and β-END-LI | very significant lowering of blood pressure | increases biopotency over that of the D-Leu^32 analog | –
SEDPP[Nle]SIDLT[dF]H[Nle]LRN[Nle]IHRAK[Nle]EGEREEA[dQ]KNRNLLDEV-NH2 (lactam 30-33) [Example 3 H, (cyclo 30-33)[Nle^6,14,18,24, D-Phe^12, Glu^30, D-Gln^32, Lys^33]-flounder urotensin] | stimulates the secretion of ACTH and β-END-LI | very significant lowering of blood pressure | – | –
CCCC[C@H](NC(=O)[C@H](CCC(=O)O)NC(=O)[C@@H](NC(=O)[C@H](CCCC)NC(=O)[C@H](CC(N)=O)NC(=O)[C@H](CCCNC(=N)N)NC(=O)[C@H](CC(C)C)NC(=O)[C@H](CC(C)C)NC(=O)[C@H](Cc1c[nH]cn1)NC(=O)[C@@H](Cc1ccccc1)NC(=O)[C@@H](NC(=O)[C@H](CC(C)C)NC(=O)[C@H](CC(=O)O)NC(=O)[C@@H](NC(=O)[C@H](CO)NC(C)=O)[C@@H](C)CC)[C@@H](C)O)[C@@H](C)CC)C(=O)N[C@@H](C)C(=O)N[C@@H](CCCNC(=N)N)C(=O)N[C@@H](CC(N)=O)C(=O)N[C@@H](CCC(=O)O)C(=O)N[C@@H](CC(N)=O)C(=O)N[C@@H](CCC(N)=O)C(=O)N[C@@H](CCCNC(=N)N)C(=O)N[C@@H](CCC(=O)O)C(=O)N[C@H]1CCC(=O)NCCCC[C@@H](C(=O)N[C@@H](CC(N)=O)C(=O)N[C@@H](CCCNC(=N)N)C(=O)N[C@@H](CCCCN)C(=O)N[C@@H](Cc2ccc(O)cc2)C(=O)N[C@@H](CC(C)C)C(=O)N[C@@H](CC(=O)O)C(=O)N[C@@H](CCC(=O)O)C(=O)N[C@H](C(N)=O)C(C)C)NC(=O)[C@@H](C)NC(=O)[C@H](C)NC1=O [Example 16 F, (cyclo 30-33)[Ac-Ser^7, D-Phe^12, Nle^18,21, Glu^30, D-Ala^32, Lys^33]-carp urotensin(7-41)] (Ac-SIDLT[dF]HLLRN[Nle]IE[Nle]ARNENQREEA[dA]KNRKYLDEV-NH2; lactam 24-27) | stimulate the secretion of ACTH and β-END-LI | very significant lowering of blood pressure | – | –
(cyclo 30-33)[Ac-Pro^4, D-Phe^12, Nle^21,38, Glu^30, D-His^32, Lys^33 ]-oCRF(4-41) [Example 3] | highly stimulates the secretion of ACTH and β-END-LI | very significant lowering of blood pressure | – | –
(cyclo 29-32)[D-Leu^11, Nle^17, Glu^29, Lys^32 ]-sauvagine [Example 3 C] | stimulates the secretion of ACTH and β-END-LI | very significant lowering of blood pressure | – | about 5.73 (2.61-13.51) times
SEEPP[Nle]SIDLT[dF]H[Nle]LRN[Nle]IHRAK[Nle]EGEREEA[dL]KNRNL[Nle]DEV-NH2 (lactam 30-33) [Example 3 G, (cyclo 30-33)[Nle^6,14,18,24,381 D-Phe^12 Glu^301 D-Leu^32, Lys^33]-sole urotensin] | stimulates the secretion of ACTH and β-END-LI | very significant lowering of blood pressure | – | –
CCCC[C@H](NC(=O)[C@H](CCCCN)NC(=O)[C@H](CCCNC(=N)N)NC(=O)[C@H](CC(C)C)NC(=O)[C@H](CC(C)C)NC(=O)[C@H](CCC(=O)O)NC(=O)[C@@H](CC(C)C)NC(=O)[C@H](CO)NC(=O)[C@H](CC(C)C)NC(=O)[C@H](CC(=O)O)NC(=O)[C@@H](NC(=O)[C@H](CO)NC(C)=O)[C@@H](C)CC)C(=O)N[C@H](C(=O)N[C@@H](CCC(=O)O)C(=O)N[C@H](C(=O)N[C@@H](CCC(=O)O)C(=O)N[C@@H](CCCCN)C(=O)N[C@@H](CCC(N)=O)C(=O)N[C@@H](CCC(=O)O)C(=O)N[C@@H](CCCCN)C(=O)N[C@@H](CCC(=O)O)C(=O)N[C@@H](CCCCN)C(=O)N[C@@H](CCC(N)=O)C(=O)N[C@H]1CCC(=O)NCCCC[C@@H](C(=O)N[C@@H](CC(N)=O)C(=O)N[C@@H](CCCNC(=N)N)C(=O)N[C@@H](CC(C)C)C(=O)N[C@@H](CC(C)C)C(=O)N[C@@H](CC(C)C)C(=O)N[C@@H](CC(=O)O)C(=O)N[C@H](C(=O)N[C@H](C(N)=O)[C@@H](C)CC)[C@@H](C)O)NC(=O)[C@H](C)NC(=O)[C@H](C)NC1=O)[C@@H](C)CC)[C@@H](C)CC [Example 16 C, (cyclo 29-32)[Ac-Ser^6, D-Leu^11, Nle^17, Glu^29, Lys^32]-sauvagine(6-40)] (Ac-SIDLS[dL]ELLRK[Nle]IEIEKQEKEKQEAAKNRLLLDTI-NH2; lactam 24-27) | stimulates the secretion of ACTH and β-END-LI | very significant lowering of blood pressure | – | –
CCCC[C@H](NC(=O)[C@H](CCC(=O)O)NC(=O)[C@H](CC(C)C)NC(=O)[C@H](CCCC)NC(=O)[C@H](CCC(=O)O)NC(=O)[C@H](CCCNC(=N)N)NC(=O)[C@H](CC(C)C)NC(=O)[C@H](CC(C)C)NC(=O)[C@H](Cc1c[nH]cn1)NC(=O)[C@@H](Cc1ccccc1)NC(=O)[C@@H](NC(=O)[C@H](CC(C)C)NC(=O)[C@H](CC(=O)O)NC(=O)[C@H](CC(C)C)NC(=O)[C@H](CO)NC(C)=O)[C@@H](C)O)C(=O)N[C@@H](C)C(=O)N[C@@H](CCCCN)C(=O)N[C@@H](C)C(=O)N[C@@H](CCC(=O)O)C(=O)N[C@@H](CCC(N)=O)C(=O)N[C@@H](CCC(=O)O)C(=O)N[C@@H](C)C(=O)N[C@@H](CCC(=O)O)C(=O)N[C@H]1CCC(=O)NCCCC[C@@H](C(=O)N[C@@H](CC(N)=O)C(=O)N[C@@H](CCCNC(=N)N)C(=O)N[C@@H](CC(C)C)C(=O)N[C@@H](CC(C)C)C(=O)N[C@@H](CC(C)C)C(=O)N[C@@H](CCC(=O)O)C(=O)N[C@@H](CCC(=O)O)C(=O)N[C@@H](C)C(N)=O)NC(=O)[C@@H](C)NC(=O)[C@H](C)NC1=O [Example 16 A, (cyclo 30-33)[Ac-Ser^7, D-Phe^12, Nle^18,21, Glu^30, D-Ala^32, Lys^33]-AHC(7-41)] (Ac-SLDLT[dF]HLLRE[Nle]LE[Nle]AKAEQEAEEA[dA]KNRLLLEEA-NH2; lactam 24-27) | strongly stimulates the secretion of ACTH and β-END-LI | very significant lowering of blood pressure | – | –
